# Experimental data from patent US9518976B2, “Methods for identifying or assaying for agents that increase beta-cell proliferation, insulin secretion, insulin sensitivity, glucose tolerance and decrease fat mass” (The Trustees of Columbia University in The City of New York, priority 2006, dated 2016).
# Ends that are not written are not given here.
# Tests used:
# Wild type mice [1] = assay: Osteocalcin subcutaneous infusion in wt mice: glucose tolerance after glucose injection; format: in vivo, mouse; conditions: 0.3 or 3 ng/hour s.c. for 14 days, then single glucose injection, 120 minute period, vs PBS
# Experimental: FIG. 11. […] Wt mice were infused subcutaneously with indicated doses of recombinant osteocalcin or PBS for 14 days before receiving a single injection of glucose. Blood glucose was measured thereafter at indicated times.
# (§1) For glucose tolerance test (GTT), glucose (2 g/kg body weight (BW)) was injected intraperitoneally (IP) after an overnight fast and blood glucose was monitored using blood glucose strips and the Accu-Check glucometer (Roche) at indicated times. For glucose stimulated insulin secretion test (GSIS), glucose (3 g/kg BW) was injected IP after an overnight fast; sera were collected from tails and insulin measured as described (Mauvais-Jarvis et al., 2000). For insulin tolerance test (ITT), mice were fasted for six hours, injected IP with insulin (0.2 U/kg BW) and blood glucose levels were measured at indicated times as described (Mauvais-Jarvis et al., 2002). ITT data are presented as percentage of initial blood glucose concentration. […] Streptozotocin ([…] single injection, Sigma) was injected IP and blood glucose measured as described above every 2 days thereafter. […] Food intake was measured using metabolic cages as the daily change of food weight. Energy expenditure was measured using metabolic cages connected to a calorimeter (Columbus Instrument). Heat values (Kcal/Hr) were recorded over 2 days and reported to each mouse BW. […]
# Wild type mice [2] = assay: Osteocalcin subcutaneous infusion in wt mice: insulin sensitivity after insulin injection; format: in vivo, mouse; conditions: 0.3 or 3 ng/hour s.c. for 18 days, then single insulin injection, 0-120 minutes, vs PBS
# Experimental: FIG. 12. […] Wt mice were infused subcutaneously with indicated doses of recombinant osteocalcin or PBS for 18 days before receiving a single injection of insulin. Blood glucose was measured thereafter at indicated times.
# as §1
# [3] = listed as recombinant osteocalcin
substance,measurement,setting,value
"uncarboxylated osteocalcin: Recombinant mouse osteocalcin bacterially produced, cleaved from GST with thrombin; completely undercarboxylated at all three sites (YLGASVPSPDPLEPTREQCELNPACDELSDQYGLKTAYKRIYGITI; not fully specified; ends and bridges not checked; UniProt P86546 50-95, looked up)",glucose tolerance,Wild type mice [1],increased glucose tolerance
same,glucose tolerance,Wild type mice [1]; [3],increases glucose tolerance
same,insulin sensitivity,Wild type mice [2],increased
same,insulin sensitivity,Wild type mice [2]; [3],increases insulin sensitivity
